Results as given in patent EP3212201B1, “NUCLEOSIDE KINASE INHIBITORS” (BCI Pharma, priority 2014, dated 2016).

Tests used:
Experiment in all cases: FRET-based coupled-enzyme protein kinase inhibition assay
Assay type in all cases: biochemical
Details in all cases: compound at 10 µM, 1% DMSO
PRKCB1 (PKC beta I) = PRKCB1 (PKC beta I) (Homo sapiens, UniProt P05771)
Description: (§1) A biochemical assay was then performed in order to measure the protein kinase inhibition. It employed a fluorescence-based coupled-enzyme format and was based on the differential sensitivity of phosphorylated and non-phosphorylated peptides to proteolytic cleavage.
(§2) Peptide substrates were labeled with two fluorophores. The two fluorohores used were coumarin (donor) and fluorecein (acceptor), and each of the peptides was bearing one at one end, and one at the other end, which made up fluorescence resonance energy transfer (FRET) pair peptides.
(§3) In a primary reaction, the FRET-peptides were submitted to a phosphorylation reaction, in which one of adenosine triphosphate (ATP)'s phosphate groups was transferred to the peptide in the presence of kinase. When kinase inhibition takes place, the peptide will not be phosphorylated. In a secondary reaction, both the phosphorylated FRET-peptides and the non-phosphorylated FRET-peptides were reacted with a development reagent. It has been observed that non-phosphorylated FRET-peptides were cleaved, whereas the phosphorylted FRET-peptide remained intact.
(§4) Cleavage disrupts FRET between the donor (i.e., coumarin) and acceptor (i.e., fluorescein) fluorophores on the FRET-peptide, whereas uncleaved, phosphorylated FRET-peptides maintain FRET. A ratiometric method, which calculates the Emission Ratio of donor emission to acceptor emission after excitation of the donor fluorophore at 400 nm, is used to quantitate reaction progress, as shown in the equation below. [formula]
(§5) A significant benefit of this ratiometric method for quantitating reaction progress is the elimination of well-to-well variations in FRET-peptide concentration and signal intensities. As a result, the assay yields very high Z'factor values (>0.7) at a low percent phosphorylation. Both cleaved and uncleaved FRET-peptides contribute to the fluorescence signals and therefore to the Emission Ratio. The extent of phosphorylation of the FRET-peptide can be calculated from the Emission Ratio. The Emission Ratio will remain low if the FRET-peptide is phosphorylated (i.e., no kinase inhibition) and will be high if the FRET-peptide is non-phosphorylated (i.e., kinase inhibition).
(§6) The Test Compounds were screened in 1% DMSO. For 10 point titrations, 3-fold serial dilutions were prepared from the starting concentration.
(§7) All Peptide/Kinase Mixtures were diluted to a 2X working concentration in the appropriate Kinase Buffer (50 mM HEPES pH 7.5, 0.01% BRIJ-35, 10 mM MgCl2, 1 mM […]).
(§8) All ATP Solutions were diluted to a 4X working concentration in Kinase Buffer. ATP Km apparent was previously determined using another assay.
The Development Reagent was diluted in Development Buffer. For 5 mL 10X Novel PKC Lipid Mix, 10X Novel PKC Lipid Mix being composed of 2 mg/ml Phosphatidyl Serine, 0.2 mg/ml DAG in 20 mM HEPES, pH 7.4, 0.3% CHAPS, 10 mg of Phosphatidyl Serine (Avanti Polar Lipids Part# 8400032C or 840039C) and 1 mg DAG (Avanti Polar Lipids Part# 800811C) were added to a glass tube.
The chloroform was removed from the lipid mixture by evaporating to a clear, thin film under a stream of nitrogen. Continuous rotation of the tube, at an angle to ensure maximum surface area of the lipid solution, has promoted the thinnest film. 5mL resuspension buffer, 20 mM HEPES, 0.3% CHAPS, pH 7.4, were added to the dried lipid mix, which was then gently heated to 50-60°C for 1-2 minutes and vortexed in short intervals until the lipids are dissolved to a clear or slightly hazy solution. The lipids were typically in solution after 2-3 heat-vortex cycles. The solution was cooled to room temperature, aliquoted into single use volumes and stored at -20 °C.
(§9) 2.5 µL - 4X Test Compound or 100 nL 100X plus 2.4 µL kinase buffer were mixed together with 2. 5 µL - 2X Peptide/Kinase Mixture and 3. 2.5 µL - 4X ATP Solution.
The solution was plate-shaked for 30 seconds, then incubated 60 minutes at room temperature for kinase reaction. […]

CHEK1 (CHK1) = molecular target: T1, CHEK1 (CHK1) (Homo sapiens, UniProt O14757)
T1 sequence (O14757 1-476): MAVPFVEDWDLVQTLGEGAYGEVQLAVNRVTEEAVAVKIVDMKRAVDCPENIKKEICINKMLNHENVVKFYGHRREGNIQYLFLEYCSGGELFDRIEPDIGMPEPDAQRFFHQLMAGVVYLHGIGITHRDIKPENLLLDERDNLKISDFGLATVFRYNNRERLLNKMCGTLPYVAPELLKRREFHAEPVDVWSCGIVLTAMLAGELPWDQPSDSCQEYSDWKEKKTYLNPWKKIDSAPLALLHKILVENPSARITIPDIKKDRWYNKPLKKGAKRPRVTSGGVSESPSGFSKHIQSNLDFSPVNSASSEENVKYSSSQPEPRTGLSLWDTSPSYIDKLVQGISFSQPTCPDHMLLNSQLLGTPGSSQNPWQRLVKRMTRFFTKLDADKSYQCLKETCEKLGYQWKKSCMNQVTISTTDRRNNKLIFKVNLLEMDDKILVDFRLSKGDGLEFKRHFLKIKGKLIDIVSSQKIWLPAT
Description: as §1, §2, §3, §4, §5, §6, §7, §8, §9
(§10) The solution was plate-shaked for 30 seconds, then incubated 60 minutes at room temperature for kinase reaction. 5 µL of Development Reagent Solution were then added, followed by a 30-second plate shake and a 60-minute Development Reaction incubation at room temperature. The results were read on a fluorescence plate reader and the data was analyzed.
(§11) The compounds that show the highest Emission Ratio are the ones that also show the highest protein kinase inhibition properties.

MET (cMet) = MET (cMet) (Homo sapiens, UniProt P08581)
Description: as §1, §2, §3, §4, §5, §6, §7, §8, §9, §10, §11

AURKA (Aurora A) = molecular target: T2, AURKA (Aurora A) (Homo sapiens, UniProt O14965)
T2 sequence (O14965 1-403): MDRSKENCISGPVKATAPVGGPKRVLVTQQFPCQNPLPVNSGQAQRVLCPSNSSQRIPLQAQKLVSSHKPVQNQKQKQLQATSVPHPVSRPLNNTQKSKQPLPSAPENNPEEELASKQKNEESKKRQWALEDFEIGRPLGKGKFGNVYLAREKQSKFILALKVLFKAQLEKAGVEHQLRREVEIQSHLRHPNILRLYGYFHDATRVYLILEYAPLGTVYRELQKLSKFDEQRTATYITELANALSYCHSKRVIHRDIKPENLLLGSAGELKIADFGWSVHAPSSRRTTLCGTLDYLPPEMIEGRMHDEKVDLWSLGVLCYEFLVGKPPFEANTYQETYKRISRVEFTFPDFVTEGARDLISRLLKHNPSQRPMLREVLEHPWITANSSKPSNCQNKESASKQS
Description: as §1, §2, §3, §4, §5, §6, §7, §8, §9, §10, §11

MAPK14 (p38 alpha) = MAPK14 (p38 alpha) (Homo sapiens, UniProt Q16539)
Description: as §1, §2, §3, §4, §5, §6, §7, §8, §9, §10, §11

RPS6KA3 (RSK2) = RPS6KA3 (RSK2) (Homo sapiens, UniProt P51812)
Description: as §1, §2, §3, §4, §5, §6, §7, §8, §9, §10, §11

IGF1R = IGF1R (Homo sapiens, UniProt P08069)
Description: as §1, §2, §3, §4, §5, §6, §7, §8, §9, §10, §11

IGF1R, sequence (P08069 31-1367, species assumed): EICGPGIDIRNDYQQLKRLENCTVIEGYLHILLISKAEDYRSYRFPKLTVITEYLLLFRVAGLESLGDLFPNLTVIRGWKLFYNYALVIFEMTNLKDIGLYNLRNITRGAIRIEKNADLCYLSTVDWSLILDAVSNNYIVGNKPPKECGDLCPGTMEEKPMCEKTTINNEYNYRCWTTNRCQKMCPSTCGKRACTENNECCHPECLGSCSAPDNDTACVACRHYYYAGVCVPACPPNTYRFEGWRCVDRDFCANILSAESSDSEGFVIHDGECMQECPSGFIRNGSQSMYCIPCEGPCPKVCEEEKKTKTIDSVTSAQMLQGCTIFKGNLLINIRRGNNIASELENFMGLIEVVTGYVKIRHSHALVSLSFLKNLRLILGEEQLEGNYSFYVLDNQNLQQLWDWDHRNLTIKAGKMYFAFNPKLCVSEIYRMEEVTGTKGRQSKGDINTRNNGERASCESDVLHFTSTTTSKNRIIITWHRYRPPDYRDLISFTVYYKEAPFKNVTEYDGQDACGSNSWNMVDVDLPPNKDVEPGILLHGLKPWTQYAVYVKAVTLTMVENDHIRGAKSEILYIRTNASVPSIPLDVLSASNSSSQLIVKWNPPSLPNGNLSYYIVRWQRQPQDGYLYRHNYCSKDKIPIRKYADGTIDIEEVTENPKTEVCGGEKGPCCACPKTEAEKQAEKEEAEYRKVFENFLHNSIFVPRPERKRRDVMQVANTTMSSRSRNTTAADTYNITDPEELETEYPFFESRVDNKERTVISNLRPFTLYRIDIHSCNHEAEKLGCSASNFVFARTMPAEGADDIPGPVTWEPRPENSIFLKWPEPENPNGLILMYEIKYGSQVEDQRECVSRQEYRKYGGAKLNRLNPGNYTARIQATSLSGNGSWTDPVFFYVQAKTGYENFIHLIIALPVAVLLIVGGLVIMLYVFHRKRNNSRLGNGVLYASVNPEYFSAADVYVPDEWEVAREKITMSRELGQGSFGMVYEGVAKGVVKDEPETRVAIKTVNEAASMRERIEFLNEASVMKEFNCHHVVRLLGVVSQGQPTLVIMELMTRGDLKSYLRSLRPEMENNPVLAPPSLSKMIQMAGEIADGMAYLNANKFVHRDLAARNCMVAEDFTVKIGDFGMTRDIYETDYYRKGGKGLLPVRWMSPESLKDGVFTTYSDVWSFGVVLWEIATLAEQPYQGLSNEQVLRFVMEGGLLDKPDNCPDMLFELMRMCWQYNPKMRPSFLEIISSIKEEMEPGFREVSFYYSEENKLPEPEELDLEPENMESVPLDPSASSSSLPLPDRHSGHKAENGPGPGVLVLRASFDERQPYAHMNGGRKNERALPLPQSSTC
PRKCB1 (PKC beta I), sequence (P05771 whole entry, species assumed): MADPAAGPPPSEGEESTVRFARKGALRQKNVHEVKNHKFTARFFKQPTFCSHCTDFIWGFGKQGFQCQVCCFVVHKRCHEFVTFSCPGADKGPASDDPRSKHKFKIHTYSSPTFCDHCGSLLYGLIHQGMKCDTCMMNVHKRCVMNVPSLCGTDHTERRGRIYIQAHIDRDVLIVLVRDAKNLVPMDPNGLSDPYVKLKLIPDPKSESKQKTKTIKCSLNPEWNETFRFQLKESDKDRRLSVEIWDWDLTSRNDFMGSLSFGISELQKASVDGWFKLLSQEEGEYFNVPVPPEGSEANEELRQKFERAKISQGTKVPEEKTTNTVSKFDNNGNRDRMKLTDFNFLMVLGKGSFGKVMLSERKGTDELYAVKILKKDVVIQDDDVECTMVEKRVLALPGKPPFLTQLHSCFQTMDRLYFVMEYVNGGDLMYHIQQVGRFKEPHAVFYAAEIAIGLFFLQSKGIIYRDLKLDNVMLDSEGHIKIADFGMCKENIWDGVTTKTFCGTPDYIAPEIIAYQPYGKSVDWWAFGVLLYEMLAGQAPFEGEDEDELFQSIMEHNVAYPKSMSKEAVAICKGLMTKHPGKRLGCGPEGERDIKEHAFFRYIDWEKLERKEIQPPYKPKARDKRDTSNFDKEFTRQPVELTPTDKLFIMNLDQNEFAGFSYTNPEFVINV
MAPK14 (p38 alpha), sequence (Q16539 whole entry, species assumed): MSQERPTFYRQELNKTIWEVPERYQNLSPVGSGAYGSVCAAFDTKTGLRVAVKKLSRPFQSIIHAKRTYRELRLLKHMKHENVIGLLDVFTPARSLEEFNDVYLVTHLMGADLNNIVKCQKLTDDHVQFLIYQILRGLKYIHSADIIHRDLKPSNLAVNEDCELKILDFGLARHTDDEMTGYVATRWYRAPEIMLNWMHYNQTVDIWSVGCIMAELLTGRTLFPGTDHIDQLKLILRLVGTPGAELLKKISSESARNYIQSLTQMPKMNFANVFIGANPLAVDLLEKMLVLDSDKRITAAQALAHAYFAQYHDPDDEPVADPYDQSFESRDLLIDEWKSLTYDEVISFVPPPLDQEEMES
MET (cMet), sequence (P08581 25-1390): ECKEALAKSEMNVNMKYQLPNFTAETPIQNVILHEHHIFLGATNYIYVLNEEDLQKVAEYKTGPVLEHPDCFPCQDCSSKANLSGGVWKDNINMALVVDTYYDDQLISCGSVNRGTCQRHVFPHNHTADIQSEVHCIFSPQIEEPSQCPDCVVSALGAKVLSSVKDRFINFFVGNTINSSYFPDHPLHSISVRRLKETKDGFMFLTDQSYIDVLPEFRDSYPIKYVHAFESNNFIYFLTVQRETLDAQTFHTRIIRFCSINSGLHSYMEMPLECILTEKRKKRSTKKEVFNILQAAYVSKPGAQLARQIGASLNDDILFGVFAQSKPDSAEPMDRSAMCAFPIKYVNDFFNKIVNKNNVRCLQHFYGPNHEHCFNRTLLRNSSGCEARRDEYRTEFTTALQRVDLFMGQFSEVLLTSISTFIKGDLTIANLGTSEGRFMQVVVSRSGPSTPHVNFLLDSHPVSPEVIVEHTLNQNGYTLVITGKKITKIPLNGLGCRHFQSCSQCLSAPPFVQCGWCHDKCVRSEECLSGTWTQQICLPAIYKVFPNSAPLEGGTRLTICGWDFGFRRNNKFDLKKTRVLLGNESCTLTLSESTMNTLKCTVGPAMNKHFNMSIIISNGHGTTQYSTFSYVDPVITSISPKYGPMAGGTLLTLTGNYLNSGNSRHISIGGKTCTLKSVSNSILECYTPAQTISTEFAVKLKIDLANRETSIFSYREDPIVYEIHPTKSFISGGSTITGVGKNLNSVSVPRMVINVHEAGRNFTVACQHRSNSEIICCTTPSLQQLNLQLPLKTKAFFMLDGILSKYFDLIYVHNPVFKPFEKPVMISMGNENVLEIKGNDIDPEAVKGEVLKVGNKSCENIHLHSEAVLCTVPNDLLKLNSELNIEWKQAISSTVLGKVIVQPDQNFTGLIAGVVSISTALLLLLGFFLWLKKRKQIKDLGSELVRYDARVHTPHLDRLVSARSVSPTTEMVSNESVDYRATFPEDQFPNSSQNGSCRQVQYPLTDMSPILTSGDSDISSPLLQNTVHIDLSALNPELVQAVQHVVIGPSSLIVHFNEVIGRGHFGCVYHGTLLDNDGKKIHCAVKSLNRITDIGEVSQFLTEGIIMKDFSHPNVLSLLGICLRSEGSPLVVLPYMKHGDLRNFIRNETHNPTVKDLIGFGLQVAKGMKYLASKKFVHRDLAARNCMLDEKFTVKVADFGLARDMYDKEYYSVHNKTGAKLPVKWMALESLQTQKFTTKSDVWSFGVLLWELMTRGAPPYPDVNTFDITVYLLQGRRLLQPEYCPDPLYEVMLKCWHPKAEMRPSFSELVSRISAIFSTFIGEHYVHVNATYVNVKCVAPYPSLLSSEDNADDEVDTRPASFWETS
RPS6KA3 (RSK2), sequence (P51812 whole entry, species assumed): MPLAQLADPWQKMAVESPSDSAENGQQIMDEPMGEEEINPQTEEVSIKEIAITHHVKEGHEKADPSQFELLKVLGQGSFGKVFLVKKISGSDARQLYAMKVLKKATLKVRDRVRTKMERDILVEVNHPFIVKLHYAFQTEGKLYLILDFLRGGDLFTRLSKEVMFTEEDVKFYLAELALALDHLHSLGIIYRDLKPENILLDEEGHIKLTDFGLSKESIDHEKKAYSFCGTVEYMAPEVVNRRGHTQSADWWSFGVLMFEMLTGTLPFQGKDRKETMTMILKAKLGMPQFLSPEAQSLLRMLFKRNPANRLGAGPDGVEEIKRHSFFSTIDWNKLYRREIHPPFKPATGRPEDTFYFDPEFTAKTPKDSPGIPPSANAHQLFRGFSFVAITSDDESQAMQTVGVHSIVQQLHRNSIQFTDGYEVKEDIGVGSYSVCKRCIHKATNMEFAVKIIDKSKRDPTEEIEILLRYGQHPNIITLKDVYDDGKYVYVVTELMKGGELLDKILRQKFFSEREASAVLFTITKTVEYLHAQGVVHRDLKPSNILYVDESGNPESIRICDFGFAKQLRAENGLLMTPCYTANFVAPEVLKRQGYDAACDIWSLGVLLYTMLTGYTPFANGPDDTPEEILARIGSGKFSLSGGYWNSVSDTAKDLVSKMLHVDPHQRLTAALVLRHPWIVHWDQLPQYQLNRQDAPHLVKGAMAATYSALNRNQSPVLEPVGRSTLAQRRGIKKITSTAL

inhibition at 10 µM (PRKCB1 (PKC beta I)) | inhibition at 10 µM (CHEK1 (CHK1)) | inhibition at 10 µM (MET (cMet)) | inhibition at 10 µM (AURKA (Aurora A)) | inhibition at 10 µM (MAPK14 (p38 alpha)) | inhibition at 10 µM (RPS6KA3 (RSK2)) | inhibition at 10 µM (IGF1R) | SMILES
6% | -20% | 0% | 9% | -3% | 8% | 0% | Nc1ncnc2c1ncn2[C@@H]1O[C@H](COC(=O)NCCCc2nc3ccccc3[nH]2)[C@@H](O)[C@H]1O [Compound C1]
-1% | -11% | 3% | 8% | -1% | 9% | 11% | C[C@@H](NC(=O)OC[C@H]1O[C@@H](n2cnc3c(N)ncnc32)[C@H](O)[C@@H]1O)c1ccc(Cl)cc1 [Compound C4]
-11% | -8% | -16% | -7% | -3% | 19% | 5% | Nc1ncnc2c1ncn2[C@@H]1O[C@H](COC(=O)NC[C@H](O)CO)[C@@H](O)[C@H]1O [Compound C8]
-6% | 14% | -11% | -5% | -4% | 1% | 9% | Nc1ncnc2c1ncn2[C@@H]1O[C@H](COC(=O)N2CCC[C@H]2CO)[C@@H](O)[C@H]1O [Compound C9]
5% | -3% | -1% | -1% | 6% | 8% | 8% | Nc1ncnc2c1ncn2[C@@H]1O[C@H](COC(=O)N[C@@H]2CCN(Cc3ccccc3)C2)[C@@H](O)[C@H]1O [Compound C10]
7% | -8% | 0% | -1% | 0% | 3% | 2% | Nc1ncnc2c1ncn2[C@@H]1O[C@H](COC(=O)N2CCN(Cc3ccccc3)CC2CO)[C@@H](O)[C@H]1O (stereo partly shown) [Compound C13]
4% | -16% | 2% | 6% | -1% | 1% | -2% | CC(C)N1CCC(NC(=O)OC[C@H]2O[C@@H](n3cnc4c(N)ncnc43)[C@H](O)[C@@H]2O)CC1 [Compound C19]
-8% | -14% | 1% | 5% | -1% | 2% | 4% | Nc1ncnc2c1ncn2[C@@H]1O[C@H](COC(=O)NCCN2CCCC2=O)[C@@H](O)[C@H]1O [Compound C22]
0% | 20% | -5% | 1% | -6% | 0% | 8% | Nc1ncnc2c1ncn2[C@@H]1O[C@H](COC(=O)N2CCN(CCc3ccccc3)CC2)[C@@H](O)[C@H]1O [Compound C26]
0% | 2% | 8% | 3% | 5% | 6% | 7% | CN1CCN(CCNC(=O)OC[C@H]2O[C@@H](n3cnc4c(N)ncnc43)[C@H](O)[C@@H]2O)CC1 [Compound C46]
1% | 18% | -14% | 4% | 18% | 6% | 1% | Nc1ncnc2c1ncn2[C@@H]1O[C@H](COC(=O)N2CCC(Cc3ccc(F)cc3)C2)[C@@H](O)[C@H]1O (stereo partly shown) [Compound C66]
-5% | -11% | -2% | -1% | 4% | 2% | 1% | N#CCCN1CCN(C(=O)OC[C@H]2O[C@@H](n3cnc4c(N)ncnc43)[C@H](O)[C@@H]2O)CC1 [Compound C70]
-1% | -9% | -12% | -11% | 0% | 7% | 8% | CN(C)CCNC(=O)OC[C@H]1O[C@@H](n2cnc3c(N)ncnc32)[C@H](O)[C@@H]1O [Compound C85]
-6% | -20% | -4% | -7% | -2% | 0% | 2% | Nc1ncnc2c1ncn2[C@@H]1O[C@H](COC(=O)N2CCN(C(=O)N3CCOCC3)CC2)[C@@H](O)[C@H]1O [Compound C89]
-1% | -8% | -12% | 0% | 20% | 4% | 8% | CS(=O)(=O)N1CC2(CCN(C(=O)OC[C@H]3O[C@@H](n4cnc5c(N)ncnc54)[C@H](O)[C@@H]3O)CC2)c2ccccc21 [Compound C98]
1% | -8% | -3% | -7% | -4% | 1% | 11% | Nc1ncnc2c1ncn2[C@@H]1O[C@H](COC(=O)N2CCS(=O)(=O)CC2)[C@@H](O)[C@H]1O [Compound C100]
